# Data taken from paper PMC6738096 (British Journal of Cancer, 2019).
# How the values were obtained:
# [1] = Phase 1 trial: plasma pharmacokinetics of TSR-011 IR (LC-MS/MS, noncompartmental analysis); type: in vivo, human
# Method: To evaluate PK and establish the RP2D, blood samples were collected from all patients in the phase 1 dose-escalation trial at daily doses of 30–480 mg.
# Plasma samples were processed through a Biotage (Uppsala, Sweden) ISOLUTE SLE + 200 μL of a 96-well-supported liquid extraction plate. […] The validated range was 0.87–433.25 nmol/L. The assay interbatch precision, expressed as percent coefficients of variation, ranged from 6.6 to 11.7%, and the interbatch accuracy, expressed as percent bias, ranged from –4.7 to 0.5%.
# PK parameters were calculated using noncompartmental analysis (Phoenix WinNonlin version 7.0, Pharsight Corporation, Mountain View, CA, USA).
# ALK-positive tumours = test: Phase 1 trial: clinical activity, tumour response by RECIST 1.1; type: in vivo, human; settings: for Best overall response: Complete response / Best overall response: Progressive disease / Best overall response: Stable disease / Objective response: Complete response + partial response / Best overall response: Partial response: ALK-positive NSCLC, 40 mg every 8 hours; for Best overall response: Partial response: confirmed and unconfirmed
# Method: The overall tumour response in all patients with measurable disease was evaluated, using Response Evaluation Criteria in Solid Tumors, version 1.1,[16] completed at times of radiologic assessment at weeks 4 and 8 after dosing and every 8 weeks thereafter. For patients without measurable disease at study entry, radiologic assessment was done as per investigator discretion.
# While tumour response data were collected from 66 patients, here, we present response data only for patients with ALK-positive tumour samples (n = 22) receiving the RP2D (40 mg Q8h).
# CYP2D6 = CYP2D6 (Homo sapiens, UniProt P10635); test: biochemical
# Sequence of CYP2D6 (P10635 whole entry): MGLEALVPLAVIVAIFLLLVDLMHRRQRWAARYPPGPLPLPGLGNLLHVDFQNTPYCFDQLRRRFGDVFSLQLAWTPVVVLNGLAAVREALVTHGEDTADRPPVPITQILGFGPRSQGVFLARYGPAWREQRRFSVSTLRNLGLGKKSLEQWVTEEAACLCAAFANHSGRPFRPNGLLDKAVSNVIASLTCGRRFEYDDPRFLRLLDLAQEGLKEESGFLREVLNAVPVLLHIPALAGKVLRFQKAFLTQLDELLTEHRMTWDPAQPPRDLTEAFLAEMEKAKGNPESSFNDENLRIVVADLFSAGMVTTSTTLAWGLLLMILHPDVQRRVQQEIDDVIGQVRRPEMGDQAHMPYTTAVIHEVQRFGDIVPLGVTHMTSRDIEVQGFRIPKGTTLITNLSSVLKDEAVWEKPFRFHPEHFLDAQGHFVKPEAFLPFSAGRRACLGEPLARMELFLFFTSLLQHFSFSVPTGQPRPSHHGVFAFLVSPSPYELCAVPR
# hERG [2] = target: T1, hERG (Homo sapiens, UniProt Q12809); test: hERG in vitro test, displacement of dofetilide binding
# T1 sequence (Q12809 whole entry): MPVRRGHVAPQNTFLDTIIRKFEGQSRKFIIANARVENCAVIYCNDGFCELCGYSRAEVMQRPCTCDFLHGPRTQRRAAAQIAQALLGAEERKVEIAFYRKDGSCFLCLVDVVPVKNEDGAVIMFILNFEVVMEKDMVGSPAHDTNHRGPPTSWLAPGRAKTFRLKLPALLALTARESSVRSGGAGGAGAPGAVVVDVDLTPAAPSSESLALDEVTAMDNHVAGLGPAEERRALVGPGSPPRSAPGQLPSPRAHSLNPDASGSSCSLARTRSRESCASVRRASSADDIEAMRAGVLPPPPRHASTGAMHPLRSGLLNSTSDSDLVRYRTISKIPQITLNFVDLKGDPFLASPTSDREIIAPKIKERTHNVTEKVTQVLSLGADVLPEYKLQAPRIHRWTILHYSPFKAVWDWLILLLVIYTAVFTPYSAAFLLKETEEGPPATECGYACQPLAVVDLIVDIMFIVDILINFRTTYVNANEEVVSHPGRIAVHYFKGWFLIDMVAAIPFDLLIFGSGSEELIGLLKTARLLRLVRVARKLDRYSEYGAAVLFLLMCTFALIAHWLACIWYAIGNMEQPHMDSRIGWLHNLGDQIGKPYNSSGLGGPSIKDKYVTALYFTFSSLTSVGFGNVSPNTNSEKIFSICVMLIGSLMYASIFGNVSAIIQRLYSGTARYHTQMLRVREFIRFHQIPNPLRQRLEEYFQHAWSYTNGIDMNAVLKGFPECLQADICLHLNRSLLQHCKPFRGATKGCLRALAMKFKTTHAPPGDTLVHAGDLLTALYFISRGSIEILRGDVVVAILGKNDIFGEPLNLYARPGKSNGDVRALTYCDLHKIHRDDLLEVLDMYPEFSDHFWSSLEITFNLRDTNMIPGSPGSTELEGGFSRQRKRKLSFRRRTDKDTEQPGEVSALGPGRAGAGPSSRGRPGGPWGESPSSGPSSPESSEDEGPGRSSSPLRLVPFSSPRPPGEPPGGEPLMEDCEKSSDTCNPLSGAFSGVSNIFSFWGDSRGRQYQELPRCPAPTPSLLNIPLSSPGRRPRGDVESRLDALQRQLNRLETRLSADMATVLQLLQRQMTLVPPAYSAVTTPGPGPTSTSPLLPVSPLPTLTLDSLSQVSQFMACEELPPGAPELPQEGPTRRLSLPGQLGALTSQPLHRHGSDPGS
# [3] = Plasma exposure in mice of the Karpas-299 study
# hERG [4] = target: T1, hERG; test: hERG channel functional assay; type: biochemical; settings: read-out: IC50, inhibition of the hERG channel, functional assay
# [5] = Telemetered dog cardiovascular study; type: in vivo
# Method: Potential in vivo effects on the respiratory, central nervous and cardiovascular systems were evaluated in oral dose studies in rats and dogs.
# [6] = single dose, over the 16-fold increase in dose (30–480 mg)
# [7] = steady state, over the sixfold increase in dose (80–480 mg)
# [8] = Prior ALK inhibitor-treated (n = 8)
# [9] = ALK-positive patients (n = 22), 40 mg Q8h
# [10] = previously treated with an ALK inhibitor, RP2D
compound,measurement,setting,value
CC(C)NC(=O)[C@H]1CC[C@@H](n2c(NC(=O)c3ccc(F)cc3)nc3ccc(CN4CCC(C(C)(C)O)CC4)cc32)CC1 [TSR-011],Highest concentration observed,[1]; 40-mg IR TID cohort,2599.50 nmol/L
same,Mean Ctrough,"[1]; 40-mg TID (Q8h), steady state day 29",351.38 nM
same,Cmax at 696 h,"[1]; human, plasma, po, 40-mg TID (Q8h), steady state day 29",528 nM
same,half-life,"[1]; human, plasma, po, cycle 1/day 1, across cohorts",7 to 27 h
same,Vd/F,"[1]; human, plasma, po, cycle 1/day 1, across cohorts, read-out: Apparent volume of distribution",188 to 1620 L
same,Cmax,"[1]; human, plasma, cycle 2/day 1, daily oral 80–480 mg",447 to 3330 nM
same,Tmax,"[1]; human, plasma, cycle 2/day 1, daily oral 80–480 mg, read-out: Median tmax",2 to 6 h
same,Increase in geometric mean AUC from 0 to 24 h,[1]; [6],42 fold
same,Increase in geometric mean Cmax,[1]; [6],41 fold
same,Increase in exposure for AUC from time 0 to the last measurable concentration,[1]; [7],2.9 fold
same,Increase in exposure for Cmax,[1]; [7],3.3 fold
same,Partial response rate,"ALK-positive tumours; ALK inhibitor-naive, RP2D",42.9%
same,"Stable disease, patients","ALK-positive tumours; ALK inhibitor-naive, RP2D",57.1%
same,Objective response rate,"ALK-positive tumours; ALK pre-treated setting, RP2D",12.5%
same,Best overall response: Complete response,ALK-positive tumours; ALK inhibitor-naïve (n = 14),0 n (%)
same,Best overall response: Progressive disease,ALK-positive tumours; ALK inhibitor-naïve (n = 14),0 n (%)
same,Best overall response: Stable disease,ALK-positive tumours; ALK inhibitor-naïve (n = 14),8 (57.1) n (%)
same,Objective response: Complete response + partial response,ALK-positive tumours; ALK inhibitor-naïve (n = 14),6 (42.9) n (%)
same,Best overall response: Partial response,ALK-positive tumours; ALK inhibitor-naïve (n = 14),6 (42.9) n (%)
same,Best overall response: Complete response,ALK-positive tumours; All patients (N = 22),0 n (%)
same,Best overall response: Progressive disease,ALK-positive tumours; All patients (N = 22),1 (4.5) n (%)
same,Best overall response: Stable disease,ALK-positive tumours; All patients (N = 22),14 (63.6) n (%)
same,Objective response: Complete response + partial response,ALK-positive tumours; All patients (N = 22),7 (31.8) n (%)
same,Best overall response: Partial response,ALK-positive tumours; All patients (N = 22),7 (31.8) n (%)
same,Best overall response: Complete response,ALK-positive tumours; [8],0 n (%)
same,Best overall response: Progressive disease,ALK-positive tumours; [8],1 (12.5) n (%)
same,Best overall response: Stable disease,ALK-positive tumours; [8],6 (75.0) n (%)
same,Objective response: Complete response + partial response,ALK-positive tumours; [8],1 (12.5) n (%)
same,Best overall response: Partial response,ALK-positive tumours; [8],1 (12.5) n (%)
same,Complete response,ALK-positive tumours; [9],No ALK-positive patient had a complete response
same,"Stable disease, number of patients",ALK-positive tumours; [9],14
same,"Partial response, number of patients","ALK-positive tumours; ALK-positive patients (n = 22), 40 mg Q8h, six confirmed, one unconfirmed",seven
same,Response of a patient with neuroblastoma harbouring ALK mutation (R1275Q),ALK-positive tumours; one patient,did not respond
same,Partial response rate,ALK-positive tumours; [10],12.5%
same,"Stable disease, patients",ALK-positive tumours; [10],75.0%
same,IC50,CYP2D6,32900 nM
same,IC50,hERG [2],2300 nM
same,Overall 24-h exposure,[3]; oral daily dosing of 60 mg/kg,"15,500 ng×h/mL"
same,Plasma concentration,"[3]; oral dose 60 mg/kg, at 8 h",698.00 nM
same,IC50,hERG [4],172 nM
same,Reversibility of cardiovascular parameters,"[5]; oral 3, 10 and 15 mg/kg",returned to normal by the subsequent dose
same,PR interval,"[5]; oral doses of 3, 10 and 15 mg/kg",dose-dependent prolongation of the PR interval
same,Body temperature,"[5]; oral, at 15 mg/kg",mild and transient increase in body temperature
same,QRS duration,"[5]; oral, at 10 and 15 mg/kg",small and dose-dependent increase in QRS duration
same,Heart rate,"[5]; oral, at ≥ 3 mg/kg",Increased heart rate
same,QTc,"[5]; oral, at ≥ 3 mg/kg",prolonged QTc
same,Pulse pressure,"[5]; oral, at ≥ 10 mg/kg",decreased pulse pressure
